From article PMC11969024, “Development of chemokine network inhibitors using combinatorial saturation mutagenesis” (Communications Biology, 2025) come the findings set out here.

The assay relates to activated CD8+T-cells (ATC). Put plainly: Activated T-cell (ATC) migration induced by individual chemokines, inhibition by peptide. Conditions: for inhibition of CCL19, CCL21, CXCL9, and CXCL11-induced migration of ATCs compared to parental HD2: peptide 10 uM, chemokines at EC80, Dunnett's test. It is filed as cell-based, human. The method, then: Cell lines were confirmed mycoplasma free by monthly testing using a MycoAlert^TM kit (LT07-118, Lonza) following the manufacturer’s instructions. THP1 cells: THP1 cells (ECACC 88081201, a human monocyte leukemia cell line[51]) were obtained from ECACC and were cultured in T175 flasks at 0.3-1 × 10^6 cells/mL in Roswell Park Memorial Institute (RPMI) 1640 medium (R0883, Sigma) with 10% FBS (F9665, Sigma) and 5mM L-glutamine (G7513, Sigma), 37 °C, 5% CO2. J:CXCR1 cells: The J:CXCR1 cell line was cultured in the same manner as THP1 cells at 0.15-1 × 10^6 cells per mL[37]. Activated T-cells: T-cells were isolated, activated and expanded as follows. Briefly, density gradient centrifugation using Lymphoprep^TM density gradient medium (07801, […] Technologies) and a SepMate^TM isolation tube (85450, […] Technologies) was used to isolate peripheral blood mononuclear cells from human leukocyte cones. Two rounds of purification using a human CD8 + T-cell isolation kit (480011, BioLegend) were used to isolate CD8 + T-cells from peripheral blood mononuclear cells. Activation of CD8 + T-cells was performed in ImmunoCult^TM-XF T-cell expansion medium (10982, […] Technologies) with an anti-CD3/anti-CD28 T-cell activator at 25 μl/ml (10991, […] Technologies), supplemented with 10 ng/ml recombinant human IL-2 (200-02, PeproTech) with 1% penicillin/streptomycin. T-cells were passaged every 2–3 days in TexMACS medium (130-097-196, Miltenyi Biotec), supplemented with 10 ng/ml human IL-2 (200-05-250, Peprotech) and incubated at 37 °C in 5% CO2. CD8 + T-cells were frozen at day 10-13 after initial activation, at 20×10^6 cell/ml in TexMACS medium supplemented with 10% DMSO (D2650, Sigma) in liquid nitrogen. Activated CD8^+ T-cells were recovered in TexMACs medium at 0.3 × 10^6 cell/ml and incubated at 37 °C in 5% CO2, 24 h prior to use. For buffy coat experiments a mixture of primary human monocytes, granulocytes and lymphocytes was isolated from human buffy coat. Briefly, RBCs were sedimented in HetaSep (07806, […] Technologies) with 1 mL of HetaSep per 5 mL of blood for 15 min at 37 °C. The buffy coat layer was collected from the top and washed in 50 ml MACS buffer (PBS (P4417, Sigma), 0.5% BSA (A7030, Sigma), 0.075% EDTA (E5134, Sigma), pH 7.2), by centrifugation at 2000 g for 10 min at room temperature. The pellet was resuspended in 10 mL of 1x RBC lysis solution (130-094-183, Miltenyi Biotec) and lysed for 10 min at room temperature. The cells were then washed in MACS buffer twice as above. The final pellet was resuspended in 1 mL of MACS buffer per 5 mL of initial blood volume and counted using cell size FSC-H/SSC-H parameters with gate settings previously defined by immunostaining (see below). The leukocytes were then resuspended in assay buffer for cell migration and used within 30 min of isolation.
Cell counts were determined using an ATTUNE NxT Flow Cytometer with Cytkick autosampler (ThermoFisher), based on cell size parameters FSC-H/SSC-H, with previously defined gate settings. FSC-H/SSC-H gate settings for primary white blood cells from buffy coats were determined using flow cytometry to establish the granulocyte, monocyte and lymphocyte populations (Supplementary Fig. 13). Briefly, cells were labelled with anti-CD3 (Miltenyi Biotec, 130-113-135) to identify the T cell population, anti-CD14 (Miltenyi Biotec, 130-110-578) to identify the monocyte population, and with anti-CD16 (Miltenyi Biotec, 130-113-951) to identify the granulocyte population. Negative control cells were labelled with anti-human IgG1 (Miltenyi Biotec, 130-113-434). All antibodies were allophycocyanin (APC) conjugated. 100,000 white blood cells were added to Eppendorf tubes and centrifuged at 300 g for 3 min. The supernatant was discarded, and the cells resuspended in 98 µL of MACS buffer (1× PBS, 2 mM EDTA and 0.5% BSA, sterile filtered). 2 µl of antibody was added to the cells. […]

Take “EEDDWTAYAPLTCYFT [HD2Y5W, HD2 point mutant]”: the “inhibition of CCL19, CCL21, CXCL9, and CXCL11-induced migration of ATCs compared to parental HD2” value is “significant improvement in inhibition”. Moreover, the “inhibition of chemokines e.g. CCL19, CCL21 and CXCL11” value (ATC migration, statement of the discussion) is recorded as “de novo inhibition”. Turning to “EEDDYWAYAPLTCYFT [HD2T6W, HD2 point mutant]”, the “inhibition of CCL19, CCL21, CXCL9, and CXCL11-induced migration of ATCs compared to parental HD2” value is on record as “significant improvement in inhibition”.
